Structures can show the parent of a compound that is named as a salt.

CK2A1 (CK2α/β), sequence (P68400 whole entry, species assumed): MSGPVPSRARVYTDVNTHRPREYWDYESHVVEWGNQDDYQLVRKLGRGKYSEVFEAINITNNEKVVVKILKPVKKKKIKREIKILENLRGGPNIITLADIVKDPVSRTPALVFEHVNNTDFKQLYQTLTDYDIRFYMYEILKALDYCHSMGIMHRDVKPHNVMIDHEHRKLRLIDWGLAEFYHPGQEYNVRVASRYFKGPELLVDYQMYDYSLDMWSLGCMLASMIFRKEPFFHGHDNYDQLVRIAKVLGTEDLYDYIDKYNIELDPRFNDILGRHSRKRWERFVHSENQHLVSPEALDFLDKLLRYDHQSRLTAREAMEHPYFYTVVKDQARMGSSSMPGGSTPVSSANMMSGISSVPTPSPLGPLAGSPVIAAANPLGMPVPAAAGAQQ
CK2A1 (CK2α/β), sequence (P67870 whole entry partner, species assumed): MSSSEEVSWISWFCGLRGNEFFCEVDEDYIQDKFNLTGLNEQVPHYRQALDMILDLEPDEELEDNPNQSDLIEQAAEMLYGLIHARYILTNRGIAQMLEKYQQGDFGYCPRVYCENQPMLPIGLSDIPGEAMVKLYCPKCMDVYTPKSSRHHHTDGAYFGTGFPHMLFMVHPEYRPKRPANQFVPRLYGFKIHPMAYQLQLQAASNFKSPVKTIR

This test has as its target CK2A1 (CK2α/β) (Homo sapiens, UniProt P68400). As to the kind of experiment: CK2 kinase assay, CK2A1 (CK2α/β). The format is biochemical. Conditions: Table A; read-out: CK2A1 (CK2α/β) (IC50).
Turning to `N#Cc1cc(Nc2nc(NC3CC3)c3ncc(C#N)n3n2)c(Cl)c([C@H]2CCC[C@@H](N3CC(O)C3)C2)c1` (single isomer, unassigned) [Example 730], the IC50 is 1.22 nM.
The figure for `N#Cc1cc(Nc2nc(NC3CC3)c3ncc(C#N)n3n2)c(Cl)c([C@H]2CCC[C@@H](N3CC(O)C3)C2)c1` (single isomer, unassigned) [Example 731] is 1.46 nM; for `CC(CC(C)c1cc(Cl)c(Nc2nc(NC3CC3)c3ncc(C#N)n3n2)cc1C#N)NCCC(F)(F)F` (single isomer, unassigned) [Example 734, 2-[(2-chloro-5-cyano-4-{4-[(3,3,3-trifluoropropyl)amino]pentan-2-yl}phenyl)amino]-4-(cyclopropylamino) imidazo[2,1-f][1,2,4]triazine-7-carbonitrile] it is 6.07 nM; for `CC(CC(C)c1cc(Cl)c(Nc2nc(NC3CC3)c3ncc(C#N)n3n2)cc1C#N)NCCC(F)(F)F` (single isomer, unassigned) [Example 735, 2-[(2-chloro-5-cyano-4-{4-[(3,3,3-trifluoropropyl)amino]pentan-2-yl}phenyl)amino]-4-(cyclopropylamino)imidazo [2,1-f][1,2,4]triazine-7-carbonitril] it is 4.37 nM.
The figure for `COC(=O)N[C@H]1CCN(c2cc(C#N)cc(Nc3nc(NC4CC4)c4ncc(C#N)n4n3)c2Cl)C[C@@H]1NC1COC1` (single isomer, unassigned) [Example 744] is 1.12 nM.
The figure for `COC(=O)N[C@H]1CCN(c2cc(C#N)cc(Nc3nc(NC4CC4)c4ncc(C#N)n4n3)c2Cl)C[C@H]1NC1COC1` (single isomer, unassigned) [Example 745] is 1.24 nM.
For `CCNc1nc(-n2cc([C@H]3C[C@@H]3CN(C)C)c3ccc(C#N)cc32)nn2c(C#N)cnc12` (single isomer, unassigned) [Example 774], the IC50 is 4.05 nM.
The figure for `CCNc1nc(-n2cc([C@@H]3C[C@H]3CN(C)C)c3ccc(C#N)cc32)nn2c(C#N)cnc12` (single isomer, unassigned) [Example 775] is 2.35 nM; for `CCNc1nc(Nc2cc(C#N)cc(N3CC[C@@H]4[C@@H](C3)OC(=O)N4[C@H]3CCOC3)c2Cl)nn2c(C#N)cnc12` (single isomer, unassigned) [Example 841] it is 2.31 nM.
`CCNc1nc(Nc2cc(C#N)cc(N3CC[C@@H]4[C@@H](C3)OC(=O)N4[C@H]3CCOC3)c2Cl)nn2c(C#N)cnc12` (single isomer, unassigned) [Example 842]: the IC50 is 2.05 nM.
The value for `CCNc1nc(Nc2cc(C#N)cc(N3CC[C@@H]4[C@@H](C3)OC(=O)N4[C@H]3CCOC3)c2Cl)nn2c(C#N)cnc12` (single isomer, unassigned) [Example 843] was 2.16 nM; that for `CCNc1nc(Nc2cc(C#N)cc(N3CC[C@@H]4[C@@H](C3)OC(=O)N4[C@H]3CCOC3)c2Cl)nn2c(C#N)cnc12` (single isomer, unassigned) [Example 844] was 1.83 nM.
The figure for `COC(=O)N[C@H]1CN(C2CN(c3cc(C#N)cc(Nc4nc(NC5CC5)c5ncc(C#N)n5n4)c3Cl)C2)CC1OC` (stereo in doubt) [Example 298, methyl ((3S,4R)-1-(1-(2-chloro-5-cyano-3-((7-cyano-4-(cyclopropylamino)imidazo[2,1-f][1,2,4]triazin-2-yl)amino)phenyl)-3-azetidinyl)-4-methoxy-3-pyrrolidinyl)carbamate] is 0.49 nM.
As for `CO[C@@H]1CN(c2cc(C#N)cc(Nc3nc(NC4CC4)c4ncc(C#N)n4n3)c2Cl)CC1NC1COC1` (stereo in doubt) [Example 302, 2-((2-chloro-5-cyano-3-((3R,4S)-3-methoxy-4-(oxetan-3-ylamino)pyrrolidin-1-yl)phenyl)amino)-4-(cyclopropylamino)imidazo[2,1-f][1,2,4]triazine-7-carbonitrile, HCl], the IC50 turned out to be 1.7 nM.
The figure for `CCNc1nc(Nc2cc(C#N)cc(N3CC(C)[C@H](NC(=O)OC)C3)c2Cl)nn2c(C#N)cnc12` (stereo in doubt) [Example 336, methyl ((3S,4R)-1-(2-chloro-5-cyano-3-((7-cyano-4-(ethylamino)imidazo[2,1-f][1,2,4]triazin-2-yl)amino)phenyl)-4-methyl-3-pyrrolidinyl)carbamate] is 0.74 nM.
Take `CCNc1nc(Nc2cc(C#N)cc(N3CCN(CC(C)O)CC3)c2Cl)nn2c(C#N)cnc12` (stereo in doubt) [Example 429, 2-((2-chloro-5-cyano-3-(4-((2R)-2-hydroxypropyl)-1-piperazinyl)phenyl)amino)-4-(ethylamino)imidazo[2,1-f][1,2,4]triazine-7-carbonitrile]: the IC50 is 1.28 nM.
The value for `N#Cc1cc(Nc2nc(NC3CC3)c3ncc(C#N)n3n2)c(Cl)c(N2CC[C@H]3[C@H](CCN3C3CS(=O)(=O)CC3O)C2)c1` (stereo in doubt) [Example 453, 2-((2-chloro-5-cyano-3-(1-((3S,4S)-4-hydroxy-1,1-dioxidotetrahydrothiophen-3-yl)hexahydro-1H-pyrrolo[3,2-c]pyridin-5(6H)-yl)phenyl)amino)-4-(cyclopropylamino)imidazo[2,1-f][1,2,4]triazine-7-carbonitrile] was 1.04 nM; that for `COC(=O)N[C@H]1CCN(c2cc(C#N)cc(Nc3nc(NC4CC4)c4ncc(C#N)n4n3)c2Cl)CC1NC(C)C` (stereo in doubt) [Example 752, methyl N-[(3R,4S)-1-(2-chloro-5-cyano-3-{[7-cyano-4-(cyclopropylamino)imidazo [2,1-f][1,2,4]triazin-2-yl]amino}phenyl)-3-[(propan-2-yl)amino]piperidin-4-yl]carbamate] was 4.93 nM.
The figure for `COC(=O)N[C@H]1CCN(c2cc(C#N)cc(Nc3nc(NC4CC4)c4ncc(C#N)n4n3)c2Cl)CC1NCC(C)(C)O` (stereo in doubt) [Example 755, methyl N-[(3S,4S)-1-(2-chloro-5-cyano-3-{[7-cyano-4-(cyclopropylamino)imidazo [2,1-f][1,2,4]triazin-2-yl]amino}phenyl)-3-[(2-hydroxy-2-methylpropyl)amino]piperidin-4-yl]carbamate] is 2.7 nM; for `CCNc1nc(Nc2cc(C#N)cc(N3CC[C@@H](NC(=O)OC)C(NCC(C)(C)O)C3)c2Cl)nn2c(C#N)cnc12` (stereo in doubt) [Example 760, methyl N-[(3S,4R)-1-(2-chloro-5-cyano-3-{[7-cyano-4-(ethylamino)imidazo[2,1-f][1,2,4]triazin-2-yl]amino}phenyl)-3-[(2-hydroxy-2-methylpropyl)amino]piperidin-4-yl] carbamate] it is 1.2 nM.
The figure for `CCNc1nc(Nc2cc(C#N)cc(N3CCC(NC(=O)OC)C(N[C@@H](C)C(N)=O)C3)c2Cl)nn2c(C#N)cnc12` (stereo in doubt) [Example 762, methyl N-[(3R,4S)-3-[(1-carbamoylethyl)amino]-1-(2-chloro-5-cyano-3-{[7-cyano-4-(ethylamino)imidazo[2,1-f][1,2,4]triazin-2-yl]amino}phenyl)piperidin-4-yl]carbamate] is 2.1 nM; for `COC(=O)NC1CCN(c2cc(C#N)cc(Nc3nc(NC4CC4)c4ncc(C#N)n4n3)c2Cl)C[C@@H]1N(C)CC#N` (stereo in doubt) [Example 764, methyl N-[(3S,4S)-1-(2-chloro-5-cyano-3-{[7-cyano-4-(cyclopropylamino)imidazo [2,1-f][1,2,4]triazin-2-yl]amino}phenyl)-3-[(cyanomethyl)(methyl)amino]piperidin-4-yl]carbamate] it is 2 nM; for `COC(=O)NC1CCN(c2cc(C#N)cc(Nc3nc(NC4CC4)c4ncc(C#N)n4n3)c2Cl)C[C@H]1N(C)CC(C)(C)O` (stereo in doubt) [Example 767, methyl N-[(3R,4S)-1-(2-chloro-5-cyano-3-{[7-cyano-4-(cyclopropylamino)imidazo [2,1-f][1,2,4]triazin-2-yl]amino}phenyl)-3-[(2-hydroxy-2-methylpropyl)(methyl)amino]piperidin-4-yl] carbamate] it is 18.1 nM.
Take `CCNc1nc(Nc2cc(C#N)cc(N3CC[C@@H](NC(=O)OC)[C@@H](N(C)C(C)C(N)=O)C3)c2Cl)nn2c(C#N)cnc12` (stereo in doubt) [Example 769, methyl N-[(3S,4R)-3-{[(1S)-1-carbamoylethyl](methyl)amino}-1-(2-chloro-5-cyano-3-{[7-cyano-4-(ethylamino)imidazo[2,1-f][1,2,4]triazin-2-yl]amino}phenyl)piperidin-4-yl]carbamate]: the IC50 was determined as 3 nM.
The value for `CN1CCN(c2cc(C#N)cc(Nc3nc(NC4CC4)c4ncc(C#N)n4n3)c2Cl)CC1` [Example 1, 2-((2-chloro-5-cyano-3-(4-methyl-1-piperazinyl)phenyl)amino)-4-(cyclopropylamino)imidazo[2,1-f][1,2,4]triazine-7-carbonitrile] was 0.9 nM; that for `Cn1cnc2cc(Nc3nc(NC4CC4)c4ncc(C#N)n4n3)ccc21` [Example 3, 4-(cyclopropylamino)-2-((1-methyl-1H-benzimidazol-5-yl)amino)imidazo[2,1-f][1,2,4]triazine-7-carbonitrile] was 0.42 nM; that for `CS(=O)(=O)N1CCN(c2cc(C#N)cc(Nc3nc(NC4CC4)c4ncc(C#N)n4n3)c2Cl)CC1` [Example 4, 2-((2-chloro-5-cyano-3-(4-(methylsulfonyl)-1-piperazinyl)phenyl)amino)-4-(cyclopropylamino)imidazo [2,1-f][1,2,4]triazine-7-carbonitrile] was 0.64 nM.
For `CN1C[C@H]2C[C@@H]1CN2c1cc(C#N)cc(Nc2nc(NC3CC3)c3ncc(C#N)n3n2)c1Cl` [Example 5, 2-((2-chloro-5-cyano-3-((1R,4R)-5-methyl-2,5-diazabicyclo[2.2.1]hept-2-yl)phenyl)amino)-4-(cyclopropylamino)imidazo [2,1-f][1,2,4]triazine-7-carbonitrile], the IC50 is 0.44 nM.
The value for `N#Cc1cc(Nc2nc(NC3CC3)c3ncc(C#N)n3n2)c(Cl)c(N2CCN3CCC2C3)c1` (centres unmarked) [Example 8, 2-((2-chloro-5-cyano-3-(1,4-diazabicyclo[3.2.1]oct-4-yl)phenyl)amino)-4-(cyclopropylamino)imidazo [2,1-f][1,2,4]triazine-7-carbonitrile] was 0.53 nM.
